From ChEMBL document CHEMBL5126566, “Comparison of three zinc binding groups for HDAC inhibitors - A potency, selectivity and enzymatic kinetics study” (Bioorg Med Chem Lett, 2022)
Calls of active or inactive are those of the source. The calls are words filed in the database; no cut-off is given here.

Assays:
Histone deacetylase 1 [1] = target: T1, Histone deacetylase 1 (Homo sapiens, UniProt Q13547); experiment: Inhibition of HDAC1 (unknown origin) preincubated for 120 mins
Histone deacetylase 3 [2] = target: T2, Histone deacetylase 3 (Homo sapiens, UniProt O15379); experiment: Mixed-type inhibition of HDAC3 (unknown origin) at 17.8 to 60 nM by Lineweaver-Burk plot analysis; settings: dose 17.8-60 nM
Histone deacetylase 11 = target: T3, Histone deacetylase 11 (Homo sapiens, UniProt Q96DB2); experiment: Inhibition of HDAC11 (unknown origin)
T3 sequence (Q96DB2 whole entry): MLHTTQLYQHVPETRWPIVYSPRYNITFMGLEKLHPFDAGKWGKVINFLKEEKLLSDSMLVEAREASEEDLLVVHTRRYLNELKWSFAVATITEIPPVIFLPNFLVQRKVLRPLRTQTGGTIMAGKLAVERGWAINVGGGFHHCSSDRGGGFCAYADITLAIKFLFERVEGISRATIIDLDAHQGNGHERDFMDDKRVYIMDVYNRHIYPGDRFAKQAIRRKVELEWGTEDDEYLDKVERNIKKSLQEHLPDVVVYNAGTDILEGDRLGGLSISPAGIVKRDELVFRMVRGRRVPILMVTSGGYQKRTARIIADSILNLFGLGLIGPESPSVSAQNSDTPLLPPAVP

Histone deacetylase 3 [3] = target: T2, Histone deacetylase 3; experiment: Inhibition of HDAC3 (unknown origin) preincubated for 5 mins
Histone deacetylase 1 [4] = target: T1, Histone deacetylase 1; experiment: Inhibition of HDAC1 (unknown origin) preincubated for 5 mins
Histone deacetylase 3 [5] = target: T2, Histone deacetylase 3; experiment: Inhibition of HDAC3 (unknown origin)
MV4-11 = experiment: Antiproliferative activity against human MV4-11 cells; type: functional, cell-based
Histone deacetylase 2 [6] = target: T4, Histone deacetylase 2 (Homo sapiens, UniProt Q92769); experiment: Inhibition of HDAC2 (unknown origin) preincubated for 90 mins
Histone deacetylase 2 [7] = target: T4, Histone deacetylase 2; experiment: Inhibition of HDAC2 (unknown origin) preincubated for 60 mins
Histone deacetylase 4 = Histone deacetylase 4 (Homo sapiens, UniProt P56524); experiment: Inhibition of HDAC4 (unknown origin)
Histone deacetylase 9 = Histone deacetylase 9 (Homo sapiens, UniProt Q9UKV0); experiment: Inhibition of HDAC9 (unknown origin)
Histone deacetylase 2 [8] = target: T4, Histone deacetylase 2; experiment: Inhibition of HDAC2 (unknown origin) preincubated for 5 mins
Histone deacetylase 2 [9] = target: T4, Histone deacetylase 2; experiment: Inhibition of HDAC2 (unknown origin) preincubated for 30 mins
Histone deacetylase 5 = Histone deacetylase 5 (Homo sapiens, UniProt Q9UQL6); experiment: Inhibition of HDAC5 (unknown origin)
[10] = target: T5, Protein deacetylase HDAC6 (Homo sapiens, UniProt Q9UBN7); experiment: Inhibition of HDAC6 (unknown origin)
T5 sequence (Q9UBN7 whole entry): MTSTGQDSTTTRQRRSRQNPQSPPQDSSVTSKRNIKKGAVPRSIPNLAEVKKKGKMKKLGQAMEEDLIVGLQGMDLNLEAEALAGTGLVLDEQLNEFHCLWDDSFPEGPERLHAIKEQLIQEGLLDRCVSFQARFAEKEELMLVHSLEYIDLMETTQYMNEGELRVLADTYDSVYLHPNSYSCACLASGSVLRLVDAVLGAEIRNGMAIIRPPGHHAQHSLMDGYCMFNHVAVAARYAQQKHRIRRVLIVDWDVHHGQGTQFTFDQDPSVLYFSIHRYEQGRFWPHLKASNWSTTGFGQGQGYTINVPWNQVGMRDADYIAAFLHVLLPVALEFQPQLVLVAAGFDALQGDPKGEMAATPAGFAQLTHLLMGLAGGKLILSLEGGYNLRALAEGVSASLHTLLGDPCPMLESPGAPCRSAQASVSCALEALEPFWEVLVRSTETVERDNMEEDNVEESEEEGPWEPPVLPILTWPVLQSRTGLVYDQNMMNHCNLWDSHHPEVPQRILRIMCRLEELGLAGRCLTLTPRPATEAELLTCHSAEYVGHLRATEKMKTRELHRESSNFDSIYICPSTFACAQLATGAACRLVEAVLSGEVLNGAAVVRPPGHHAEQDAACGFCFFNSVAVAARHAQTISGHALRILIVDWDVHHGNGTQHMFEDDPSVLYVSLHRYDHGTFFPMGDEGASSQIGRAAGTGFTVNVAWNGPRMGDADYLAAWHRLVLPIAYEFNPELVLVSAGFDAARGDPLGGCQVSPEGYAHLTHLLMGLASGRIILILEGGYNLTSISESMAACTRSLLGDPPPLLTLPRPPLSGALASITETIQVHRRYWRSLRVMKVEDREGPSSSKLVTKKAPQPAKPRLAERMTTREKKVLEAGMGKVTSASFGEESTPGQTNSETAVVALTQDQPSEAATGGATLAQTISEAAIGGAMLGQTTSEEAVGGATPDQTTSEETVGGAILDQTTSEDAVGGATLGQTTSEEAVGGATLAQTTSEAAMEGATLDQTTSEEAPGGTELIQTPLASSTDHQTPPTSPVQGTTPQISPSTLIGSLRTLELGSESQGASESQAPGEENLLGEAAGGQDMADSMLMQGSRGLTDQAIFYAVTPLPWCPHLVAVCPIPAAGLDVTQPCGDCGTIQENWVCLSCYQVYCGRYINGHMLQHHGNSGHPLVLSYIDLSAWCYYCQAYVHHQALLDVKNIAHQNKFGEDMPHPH

Histone deacetylase 8 = target: T6, Histone deacetylase 8 (Homo sapiens, UniProt Q9BY41); experiment: Inhibition of HDAC8 (unknown origin)
T6 sequence (Q9BY41 whole entry): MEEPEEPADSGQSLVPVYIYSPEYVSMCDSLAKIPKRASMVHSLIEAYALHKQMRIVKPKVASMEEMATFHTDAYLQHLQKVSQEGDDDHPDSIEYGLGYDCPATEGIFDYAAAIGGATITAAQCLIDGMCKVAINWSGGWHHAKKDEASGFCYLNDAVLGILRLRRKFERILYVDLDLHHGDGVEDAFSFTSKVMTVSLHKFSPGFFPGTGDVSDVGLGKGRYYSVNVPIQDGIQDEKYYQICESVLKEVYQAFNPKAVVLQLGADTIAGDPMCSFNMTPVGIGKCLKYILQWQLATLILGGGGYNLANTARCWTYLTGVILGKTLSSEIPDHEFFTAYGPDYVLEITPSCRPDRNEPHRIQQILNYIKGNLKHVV

Histone deacetylase 7 = target: T7, Histone deacetylase 7 (Homo sapiens, UniProt Q8WUI4); experiment: Inhibition of HDAC7 (unknown origin)
T7 sequence (Q8WUI4 whole entry): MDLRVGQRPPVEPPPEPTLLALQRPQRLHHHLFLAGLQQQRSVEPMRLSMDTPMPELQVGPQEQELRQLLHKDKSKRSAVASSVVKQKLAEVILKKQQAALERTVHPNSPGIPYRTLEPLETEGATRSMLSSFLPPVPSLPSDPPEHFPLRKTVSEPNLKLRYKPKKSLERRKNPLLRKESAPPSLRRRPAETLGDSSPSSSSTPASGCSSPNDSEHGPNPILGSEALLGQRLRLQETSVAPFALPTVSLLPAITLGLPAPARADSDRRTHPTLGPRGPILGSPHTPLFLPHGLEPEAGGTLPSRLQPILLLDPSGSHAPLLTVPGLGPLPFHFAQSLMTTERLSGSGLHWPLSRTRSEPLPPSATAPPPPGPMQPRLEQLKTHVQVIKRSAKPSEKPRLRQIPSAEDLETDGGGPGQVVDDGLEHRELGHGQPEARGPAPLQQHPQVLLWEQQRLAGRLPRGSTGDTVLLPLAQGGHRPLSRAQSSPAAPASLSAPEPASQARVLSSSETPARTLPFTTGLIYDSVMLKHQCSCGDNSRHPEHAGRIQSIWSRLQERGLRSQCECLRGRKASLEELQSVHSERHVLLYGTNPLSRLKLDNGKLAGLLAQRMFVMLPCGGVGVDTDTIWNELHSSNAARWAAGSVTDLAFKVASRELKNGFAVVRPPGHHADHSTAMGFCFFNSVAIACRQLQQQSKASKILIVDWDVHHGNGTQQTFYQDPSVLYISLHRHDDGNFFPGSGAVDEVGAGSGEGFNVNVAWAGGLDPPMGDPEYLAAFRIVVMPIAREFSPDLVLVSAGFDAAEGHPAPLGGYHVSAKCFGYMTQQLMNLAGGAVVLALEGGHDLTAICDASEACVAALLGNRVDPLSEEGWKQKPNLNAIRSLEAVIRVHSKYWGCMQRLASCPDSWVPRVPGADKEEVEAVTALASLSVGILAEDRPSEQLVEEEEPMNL

Histone deacetylase 1 [11] = target: T1, Histone deacetylase 1; experiment: Inhibition of HDAC1 (unknown origin) preincubated for 60 mins
Histone deacetylase 3 [12] = target: T2, Histone deacetylase 3; experiment: Inhibition of HDAC3 (unknown origin) preincubated for 120 mins
Histone deacetylase 2 [13] = target: T4, Histone deacetylase 2; experiment: Mixed-type inhibition of HDAC2 (unknown origin) at 17.8 to 60 nM by Lineweaver-Burk plot analysis; settings: dose 17.8-60 nM
[14] = target: Histone deacetylase (Homo sapiens) (UniProt Q13547+O15379+Q9UBN7+Q92769+Q9UQL6+Q8WUI4+Q9BY41+Q96DB2+P56524+Q9UKV0+Q969S8); experiment: Inhibition of HDAC in human MV4-11 cells assessed as histone H3 acetylation preincubated for 3 hrs followed by compound washout and measured after 6 hrs by Western blot analysis; type: cell-based
Histone deacetylase 1 [15] = target: T1, Histone deacetylase 1; experiment: Inhibition of HDAC1 (unknown origin)
Histone deacetylase 2 [16] = target: T4, Histone deacetylase 2; experiment: Inhibition of HDAC2 (unknown origin)
Histone deacetylase 3 [17] = target: T2, Histone deacetylase 3; experiment: Inhibition of HDAC3 (unknown origin) preincubated for 60 mins
Histone deacetylase 1 [18] = target: T1, Histone deacetylase 1; experiment: Mixed-type inhibition of HDAC1 (unknown origin) at 17.8 to 60 nM by Lineweaver-Burk plot analysis; settings: dose 17.8-60 nM
Histone deacetylase 3 [19] = target: T2, Histone deacetylase 3; experiment: Inhibition of HDAC3 (unknown origin) preincubated for 90 mins
Histone deacetylase 1 [20] = target: T1, Histone deacetylase 1; experiment: Inhibition of HDAC1 (unknown origin) preincubated for 90 mins
Histone deacetylase 2 [21] = target: T4, Histone deacetylase 2; experiment: Inhibition of HDAC2 (unknown origin) at 1 uM preincubated for 1 hr followed by 100-fold dilution and subsequent substrate addition measured after 1 hr; settings: time 2.0 hrs
Histone deacetylase 3 [22] = target: T2, Histone deacetylase 3; experiment: Inhibition of HDAC3 (unknown origin) preincubated for 30 mins
Histone deacetylase 1 [23] = target: T1, Histone deacetylase 1; experiment: Inhibition of HDAC1 (unknown origin) preincubated for 30 mins
Histone deacetylase 3 [24] = target: T2, Histone deacetylase 3; experiment: Inhibition of HDAC3 (unknown origin) at 1 uM preincubated for 1 hr followed by 100-fold dilution and subsequent substrate addition measured after 1 hr; settings: time 2.0 hrs
Histone deacetylase 2 [25] = target: T4, Histone deacetylase 2; experiment: Inhibition of HDAC2 (unknown origin) preincubated for 120 mins
[26] = target: T8, Polyamine deacetylase HDAC10 (Homo sapiens, UniProt Q969S8); experiment: Inhibition of HDAC10 (unknown origin)
T8 sequence (Q969S8 whole entry): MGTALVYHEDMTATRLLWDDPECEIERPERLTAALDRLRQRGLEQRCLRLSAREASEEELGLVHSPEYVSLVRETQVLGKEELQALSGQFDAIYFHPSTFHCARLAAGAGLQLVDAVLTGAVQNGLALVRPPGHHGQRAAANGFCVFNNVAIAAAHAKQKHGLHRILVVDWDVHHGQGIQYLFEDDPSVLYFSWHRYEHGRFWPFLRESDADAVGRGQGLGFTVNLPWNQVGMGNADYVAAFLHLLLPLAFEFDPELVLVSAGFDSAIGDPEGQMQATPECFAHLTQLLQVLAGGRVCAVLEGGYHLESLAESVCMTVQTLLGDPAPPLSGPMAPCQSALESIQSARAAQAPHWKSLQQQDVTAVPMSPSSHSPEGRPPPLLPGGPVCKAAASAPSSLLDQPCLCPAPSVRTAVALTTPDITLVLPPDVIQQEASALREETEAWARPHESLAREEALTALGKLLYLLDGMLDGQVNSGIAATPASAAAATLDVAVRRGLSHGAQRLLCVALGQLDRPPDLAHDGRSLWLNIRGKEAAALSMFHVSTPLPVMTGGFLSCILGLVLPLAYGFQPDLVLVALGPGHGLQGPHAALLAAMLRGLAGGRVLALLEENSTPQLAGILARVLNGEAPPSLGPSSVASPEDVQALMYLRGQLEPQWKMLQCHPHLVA

Histone deacetylase 1 [27] = target: T1, Histone deacetylase 1; experiment: Inhibition of HDAC1 (unknown origin) at 1 uM preincubated for 1 hr followed by 100-fold dilution and subsequent substrate addition measured after 1 hr; settings: time 2.0 hrs

T4 sequence (Q92769 whole entry): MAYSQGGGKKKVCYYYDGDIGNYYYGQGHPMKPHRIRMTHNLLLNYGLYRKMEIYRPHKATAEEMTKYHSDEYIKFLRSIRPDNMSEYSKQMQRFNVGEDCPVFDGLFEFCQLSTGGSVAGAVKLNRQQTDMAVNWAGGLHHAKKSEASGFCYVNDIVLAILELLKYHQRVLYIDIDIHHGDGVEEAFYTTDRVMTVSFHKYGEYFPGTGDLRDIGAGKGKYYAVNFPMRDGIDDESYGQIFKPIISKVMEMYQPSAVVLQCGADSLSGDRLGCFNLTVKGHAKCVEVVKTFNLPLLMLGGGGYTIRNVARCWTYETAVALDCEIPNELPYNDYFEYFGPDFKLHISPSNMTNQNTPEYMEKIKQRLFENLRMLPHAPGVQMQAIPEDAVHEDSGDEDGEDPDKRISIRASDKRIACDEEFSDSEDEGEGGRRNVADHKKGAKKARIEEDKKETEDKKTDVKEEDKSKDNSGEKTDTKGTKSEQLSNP
T2 sequence (O15379 whole entry): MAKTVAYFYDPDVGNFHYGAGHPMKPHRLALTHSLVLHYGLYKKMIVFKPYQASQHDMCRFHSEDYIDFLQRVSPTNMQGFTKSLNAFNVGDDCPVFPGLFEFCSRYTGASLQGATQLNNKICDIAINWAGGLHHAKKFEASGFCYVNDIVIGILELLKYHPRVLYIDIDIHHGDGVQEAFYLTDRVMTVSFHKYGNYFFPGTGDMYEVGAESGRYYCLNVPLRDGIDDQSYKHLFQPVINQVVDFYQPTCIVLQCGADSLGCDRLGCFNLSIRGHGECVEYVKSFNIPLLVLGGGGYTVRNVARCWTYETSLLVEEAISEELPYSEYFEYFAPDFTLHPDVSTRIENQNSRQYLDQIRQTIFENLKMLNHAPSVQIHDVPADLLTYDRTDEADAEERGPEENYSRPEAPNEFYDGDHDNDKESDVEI
T1 sequence (Q13547 whole entry): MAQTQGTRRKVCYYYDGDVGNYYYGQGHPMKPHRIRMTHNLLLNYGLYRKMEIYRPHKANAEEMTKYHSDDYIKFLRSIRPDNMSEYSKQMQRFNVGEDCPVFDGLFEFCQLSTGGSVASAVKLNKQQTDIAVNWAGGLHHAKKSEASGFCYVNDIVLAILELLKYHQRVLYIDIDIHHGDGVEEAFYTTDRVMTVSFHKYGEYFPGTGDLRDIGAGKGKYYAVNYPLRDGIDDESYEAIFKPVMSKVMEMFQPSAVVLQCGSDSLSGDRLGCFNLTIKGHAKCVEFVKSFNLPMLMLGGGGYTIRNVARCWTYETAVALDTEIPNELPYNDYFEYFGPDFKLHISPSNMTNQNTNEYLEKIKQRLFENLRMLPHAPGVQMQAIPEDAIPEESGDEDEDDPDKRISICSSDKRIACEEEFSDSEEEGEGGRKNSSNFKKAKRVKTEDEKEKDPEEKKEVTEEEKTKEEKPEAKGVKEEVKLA
Histone deacetylase 5, sequence (Q9UQL6 whole entry): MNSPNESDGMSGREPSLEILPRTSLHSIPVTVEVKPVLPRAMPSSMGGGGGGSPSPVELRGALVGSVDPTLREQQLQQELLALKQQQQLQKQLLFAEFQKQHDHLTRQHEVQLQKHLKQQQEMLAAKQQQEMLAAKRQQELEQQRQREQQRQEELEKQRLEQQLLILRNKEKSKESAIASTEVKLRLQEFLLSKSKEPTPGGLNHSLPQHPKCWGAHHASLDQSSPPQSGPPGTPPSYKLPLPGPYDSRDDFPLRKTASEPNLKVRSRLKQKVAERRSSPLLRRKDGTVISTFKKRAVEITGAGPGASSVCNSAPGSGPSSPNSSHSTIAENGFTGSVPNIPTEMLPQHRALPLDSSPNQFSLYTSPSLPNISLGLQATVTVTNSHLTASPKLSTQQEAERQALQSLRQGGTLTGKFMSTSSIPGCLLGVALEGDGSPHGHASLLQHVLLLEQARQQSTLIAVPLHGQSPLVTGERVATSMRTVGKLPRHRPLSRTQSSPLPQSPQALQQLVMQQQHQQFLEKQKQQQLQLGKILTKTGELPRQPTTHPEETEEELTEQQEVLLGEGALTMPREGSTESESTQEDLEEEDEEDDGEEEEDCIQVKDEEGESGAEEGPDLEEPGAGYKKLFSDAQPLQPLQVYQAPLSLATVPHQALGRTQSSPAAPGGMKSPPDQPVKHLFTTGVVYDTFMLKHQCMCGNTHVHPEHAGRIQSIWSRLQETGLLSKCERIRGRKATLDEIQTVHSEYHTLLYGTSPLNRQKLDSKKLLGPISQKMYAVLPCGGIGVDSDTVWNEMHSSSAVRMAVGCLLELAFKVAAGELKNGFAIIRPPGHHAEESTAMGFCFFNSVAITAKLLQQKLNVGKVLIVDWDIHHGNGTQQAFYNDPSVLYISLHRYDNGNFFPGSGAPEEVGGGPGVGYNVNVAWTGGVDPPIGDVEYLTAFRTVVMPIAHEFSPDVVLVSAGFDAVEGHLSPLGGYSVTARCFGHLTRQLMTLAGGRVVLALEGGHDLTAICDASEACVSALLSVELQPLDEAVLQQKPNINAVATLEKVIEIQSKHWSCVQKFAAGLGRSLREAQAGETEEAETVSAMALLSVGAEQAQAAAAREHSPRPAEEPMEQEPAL
Histone deacetylase 4, sequence (P56524 whole entry): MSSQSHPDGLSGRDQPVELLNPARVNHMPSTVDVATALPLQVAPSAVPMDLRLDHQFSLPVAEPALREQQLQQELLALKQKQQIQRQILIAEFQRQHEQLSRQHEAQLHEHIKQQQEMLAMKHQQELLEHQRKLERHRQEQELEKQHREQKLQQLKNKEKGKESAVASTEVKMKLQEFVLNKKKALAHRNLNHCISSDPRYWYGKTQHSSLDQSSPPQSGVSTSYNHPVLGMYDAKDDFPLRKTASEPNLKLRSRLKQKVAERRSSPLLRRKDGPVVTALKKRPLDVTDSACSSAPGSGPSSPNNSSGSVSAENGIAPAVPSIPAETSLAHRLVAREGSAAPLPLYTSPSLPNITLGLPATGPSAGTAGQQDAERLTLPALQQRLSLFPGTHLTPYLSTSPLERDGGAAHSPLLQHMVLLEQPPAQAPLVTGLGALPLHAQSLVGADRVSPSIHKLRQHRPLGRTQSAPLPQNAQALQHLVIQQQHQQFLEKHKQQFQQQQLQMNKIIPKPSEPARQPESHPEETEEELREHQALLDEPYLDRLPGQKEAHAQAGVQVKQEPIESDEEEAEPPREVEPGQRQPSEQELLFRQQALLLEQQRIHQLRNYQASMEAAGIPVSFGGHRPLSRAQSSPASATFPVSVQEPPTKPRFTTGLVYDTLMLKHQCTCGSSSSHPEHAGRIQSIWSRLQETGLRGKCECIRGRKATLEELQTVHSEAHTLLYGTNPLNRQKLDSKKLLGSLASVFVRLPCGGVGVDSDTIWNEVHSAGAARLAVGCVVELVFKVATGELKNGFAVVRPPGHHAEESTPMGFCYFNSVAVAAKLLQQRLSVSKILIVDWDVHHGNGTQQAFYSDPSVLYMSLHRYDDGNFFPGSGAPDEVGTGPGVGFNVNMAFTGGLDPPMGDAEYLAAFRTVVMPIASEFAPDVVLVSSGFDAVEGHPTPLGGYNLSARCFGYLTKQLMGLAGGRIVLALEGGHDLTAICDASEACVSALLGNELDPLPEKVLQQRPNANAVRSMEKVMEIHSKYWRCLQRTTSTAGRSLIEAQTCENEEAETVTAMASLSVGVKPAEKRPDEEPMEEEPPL
Histone deacetylase 9, sequence (Q9UKV0 whole entry): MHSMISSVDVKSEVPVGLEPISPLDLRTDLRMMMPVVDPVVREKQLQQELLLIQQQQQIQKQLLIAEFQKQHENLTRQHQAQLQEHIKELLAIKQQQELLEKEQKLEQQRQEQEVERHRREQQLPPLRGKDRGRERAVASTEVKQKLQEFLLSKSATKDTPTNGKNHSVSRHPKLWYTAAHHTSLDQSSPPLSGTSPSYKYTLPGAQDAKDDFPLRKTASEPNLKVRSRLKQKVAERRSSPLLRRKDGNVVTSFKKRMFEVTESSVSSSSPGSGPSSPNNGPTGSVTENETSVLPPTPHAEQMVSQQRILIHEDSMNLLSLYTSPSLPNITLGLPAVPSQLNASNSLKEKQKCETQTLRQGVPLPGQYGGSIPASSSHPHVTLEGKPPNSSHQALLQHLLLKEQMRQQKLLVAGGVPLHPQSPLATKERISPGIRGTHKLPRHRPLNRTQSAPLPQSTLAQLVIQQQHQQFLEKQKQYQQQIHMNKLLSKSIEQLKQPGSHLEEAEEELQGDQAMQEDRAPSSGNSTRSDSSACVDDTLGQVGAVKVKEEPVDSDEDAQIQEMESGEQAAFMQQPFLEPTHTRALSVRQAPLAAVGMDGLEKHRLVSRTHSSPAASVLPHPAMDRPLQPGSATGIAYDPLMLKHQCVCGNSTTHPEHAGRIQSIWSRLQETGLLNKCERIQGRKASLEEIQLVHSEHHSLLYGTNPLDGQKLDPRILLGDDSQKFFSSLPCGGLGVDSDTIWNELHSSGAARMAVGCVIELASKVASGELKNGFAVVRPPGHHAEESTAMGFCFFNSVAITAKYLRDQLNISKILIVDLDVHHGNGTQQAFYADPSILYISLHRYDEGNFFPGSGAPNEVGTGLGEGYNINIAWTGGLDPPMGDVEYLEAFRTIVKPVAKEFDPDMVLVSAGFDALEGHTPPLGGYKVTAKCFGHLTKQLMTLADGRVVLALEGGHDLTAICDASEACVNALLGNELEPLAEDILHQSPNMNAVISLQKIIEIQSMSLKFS

Structure (SMILES): CCCNNC(=O)CCCCCCC(=O)Nc1ccccc1
- IC50 (Histone deacetylase 1 [1]): 48.4 nM
- inhibition (Histone deacetylase 3 [2]): Active
- IC50 (Histone deacetylase 11): > 10000 nM
- IC50 (Histone deacetylase 3 [3]): 58.2 nM
- IC50 (Histone deacetylase 1 [4]): 176 nM
- IC50 (Histone deacetylase 3 [5]): 20.3 nM
- IC50 (MV4-11): 587 nM
- IC50 (Histone deacetylase 2 [6]): 163 nM
- IC50 (Histone deacetylase 2 [7]): 214 nM
- IC50 (Histone deacetylase 4): > 10000 nM
- IC50 (Histone deacetylase 9): > 10000 nM
- IC50 (Histone deacetylase 2 [8]): 406 nM
- IC50 (Histone deacetylase 2 [9]): 304 nM
- IC50 (Histone deacetylase 5): > 10000 nM
- IC50 [10]: > 10000 nM
- IC50 (Histone deacetylase 8): > 10000 nM
- IC50 (Histone deacetylase 7): > 10000 nM
- IC50 (Histone deacetylase 1 [11]): 62.9 nM
- IC50 (Histone deacetylase 3 [12]): 17.7 nM
- inhibition (Histone deacetylase 2 [13]): Active
- inhibition [14]: Active
- IC50 (Histone deacetylase 1 [15]): 45.2 nM
- IC50 (Histone deacetylase 2 [16]): 125 nM
- IC50 (Histone deacetylase 3 [17]): 22.9 nM
- inhibition (Histone deacetylase 1 [18]): Active
- IC50 (Histone deacetylase 3 [19]): 17.2 nM
- IC50 (Histone deacetylase 1 [20]): 41.8 nM
- inhibition (Histone deacetylase 2 [21]): Active
- IC50 (Histone deacetylase 3 [22]): 30.1 nM
- IC50 (Histone deacetylase 1 [23]): 89.2 nM
- inhibition (Histone deacetylase 3 [24]): Active
- IC50 (Histone deacetylase 2 [25]): 146 nM
- IC50 [26]: > 10000 nM
- inhibition (Histone deacetylase 1 [27]): Active
